Results reported in patent US20050043314A1, “Substituted alkylaminopyridazinone derivatives, process for the preparation thereof and pharmaceutical composition containing the same” (priority 2001, published 2005).

Tests used:
male Wistar rats [1] = assay: Vogel lick-conflict (drinking conflict) test; format: in vivo, rat; settings: intraperitoneally, 30 min prior to test; number of tolerated shocks
Protocol: Experiments were performed in a PC operated system (LIIKOSYS, Experimetria, Hungary) consisted of 8 test chambers (20 cm×20 cm×20 cm Plexiglas boxes) each of which was equipped with a water fountain system mounted at appropriate height on the wall of the chamber and metal grid floor for delivering electric shocks. 160-180 g male Wistar rats (N═8) were deprived of drinking water 48 h and fasted for 24 h prior to test. Test and reference compounds or vehicle were administered intraperitoneally, 30 min prior to test. All procedures were carried out in a quiet, air-conditioned room between 07:30 and 13:00 h at an ambient temperature of 23±2° C. At the beginning of the test the animals were placed in the test chamber where they had free access to drinking water for a 30 s grace period. After that, electric shocks (600 μA, 0.6 s) were applied through the drinking spout following every 20 licks during the 5 min test period (Vogel et al, 1971). Number of punished licks were recorded and stored by an IBM compatible computer. Means±SEM of numbers of tolerated shocks were calculated in each group, statistical analysis of data was performed by one way ANOVA followed by Duncan's test (STATISTICA). Diazepam [7-chloro-1,3-dihydro-1-methyl-5-phenyl-2H-1,4-benzodiazepine-2-one] was used as the reference substance.

mouse = assay: Inhibition of spontaneous motor activity (Dews instrument); format: in vivo; settings: per os, 60 min before test, 30 min recording; sedative effect
Protocol: The effect on spontaneous motor activity was investigated according to Borsy and co-workers [Borsy, J. et al, Arch. Int. Pharmacodyn., 124, 180-190 (1960)] in a ten channel Dews instrument, with 1-1 animal in each channel. Animals were placed into the instrument 60 min after per os treatment with either vehicle or test compound, and interruptions of infrared beams were recorded for 30 min. […] Diazepam was used as the reference substance.

Male Sprague-Dawley rats = assay: Elevated plus-maze test in rats; format: in vivo, rat; settings: 60 min after treatment, minimal effective dose regarding time spent in the open arms
Excerpt: Test have been performed as described by Pellow and co-workers [J.Neurosci. Methods, 14, 149 (1985)]. A wooden cross, 15 cm wide with 100 cm long arms was used for the experiments. The sides and ends of two opposite arms of the cross were equipped with 40 cm high walls, however, the arms were open to the […] central area (closed arms). The two other opposite arms were not encircled by walls (open arms).
Male Sprague-Dawley rats weighing 200-220 g were used for the experiments. The animals were placed in the central area of the equipment 60 min after treatment and the following four parameters have been observed for the 5 min test time: • time spent in the open arms, • time spent in the closed arms, • number of entries into the open arms, • number of entries into the closed arms.
The effect was expressed as percent increase in either the time (measured in sec) spent in the open arms or number of entries into the open arms. MEDs (minimal effective dose) were determined for each compound regarding the time spent in the open arms
Buspirone [8-{4-[4-(2-pyrimidinyl)-1-piperazinyl]butyl}-8-azaspiro[4,5]decane-7,9-dione] was used as the reference substance.

male Wistar rats [2] = assay: Effects on blood pressure in conscious, freely moving rats (radiotelemetry); format: in vivo, rat
Excerpt: A 7 day postoperative recovery period was allowed.
None of the compounds examined reduced blood pressure of the test animals.

| Compound | MED in mg/kg ip. (male Wistar rats [1]) [mg/kg] | ID50 in mg/kg po. (mouse) [mg/kg] | melting point [°C] | MED in mg/kg po. (Male Sprague-Dawley rats) [mg/kg] | Results of statistical evaluation (male Wistar rats [2]; blood pressure compared to placebo, N.S. = Not significant statistically, two-way ANOVA with Scheffe's post hoc test) | Mean blood pressure after treatment with test compound, Mean (male Wistar rats [2]; mean arterial blood pressure for 6 hours after oral treatment, conscious rats) [mmHg] |
| --- | --- | --- | --- | --- | --- | --- |
| 5-{2-[4-(methoxytrifluoromethylphenyl)-piperazine-1-yl]-ethylamino}-2H-pyridazine-3-one trihydrochloride [Example 1] | 20.0 |  |  |  |  |  |
| CN1C(=O)CN=C(c2ccccc2)c2cc(Cl)ccc21 [Diazepam, 7-chloro-1,3-dihydro-1-methyl-5-phenyl-2H-1,4-benzodiazepine-2-one, reference compound] | 5.0 | 7.0 |  |  |  |  |
| O=c1cc(NCCN2CCN(c3ccccc3F)CC2)cn[nH]1 [Example 2, 5-{2-[4-(2-fluorophenyl)piperazine-1-yl]ethyl-amino}-2H-pyridazine-3-one] | 20.0 | 21.0 | 103 to 105 |  |  |  |
| O=c1cc(NCCN2CCN(c3ccccc3)CC2)cn[nH]1 [Example 3, 5-{2-[4phenylpiperazine-1-yl]ethylamino}2H-pyridazine-3-one] | 5.0 | 60.0 | 147 to 149 | 0.1 |  |  |
| O=c1cc(NCCN2CCN(c3ccccn3)CC2)cn[nH]1 [Example 4, 5-[2-(4-pyridin-2-ylpiperazine-;1-yl)ethylamino]-2H-pyridazine-3-one] | 10.0 |  |  |  |  |  |
| O=c1cc(NCCN2CCN(c3ncccn3)CC2)cn[nH]1 [Example 5, 5-[2-(4-pyrimidin-2-ylpiperazine-1-yl)ethylamino]-2H-pyridazine-3-one] | 20.0 | >100.0 | 199 to 201 |  |  |  |
| O=c1cc(NCCN2CCN(c3ccc(F)cc3)CC2)cn[nH]1 [Example 7, 5-{2-[4-(4-fluorophenyl)piperazine-1-yl]ethyl-amino]-2H-pyridazine-3-one] | 20.0 |  | 96 to 98 |  | N.S. | 92.7 |
